Experimental data from patent US20200031793A1, “Synthesis of Thapsigargin, Nortrilobolide, and Analogs Thereof” (priority 2017, published 2020).

Key:
[1] = system: sarco/endoplasmic reticulum Ca^2+-ATPases (SERCAs); conditions: cited from earlier work; for inhibition of sarco/endoplasmic reticulum Ca^2+-ATPases (SERCAs): qualitative statement, no own test

| Compound | inhibition of sarco/endoplasmic reticulum Ca^2+-ATPases (SERCAs) [1] | inhibition of Sarco/endoplasmic reticulum Ca^2+-ATPase compared with thapsigargin (1) ([1]; relative to 1 (thapsigargin)) | melting point |
| --- | --- | --- | --- |
| C/C=C(/C)C(=O)O[C@@H]1C[C@H]2C(=C1C)[C@@H]1OC(=O)[C@@](C)(O)[C@@]1(O)[C@@H](OC(=O)CCC)C[C@]2(C)OC(C)=O [nortrilobolide] | potent inhibitor | equipotent inhibition | – |
| CC1=C2[C@@H]3OC(=O)[C@@](C)(O[Si](C)(C)C)[C@@]3(O)[C@H](OCc3ccccc3)C[C@](C)(O)[C@H]2C[C@H]1O[Si](C)(C)C(C)(C)C | – | – | 176.1 to 178.5 °C |
| thapsigargin | highly selective subnanomolar inhibitor | – | – |
